Measured values reported in patent publication US20090170947A1, “DISINFECTANT COMPOSITIONS, METHODS AND SYSTEMS” (priority 2007, published 2009).
Where a name gives a salt, the structure may show the parent alone.

Assays:
[1] = test system: Staphylococcus aureus (Organism #25923); assay: MIC/MBC micro-dilution at pH 7, S. aureus; type: cell-based; conditions: pH of 7
Description: (§1) In order to determine MIC (minimum inhibitory concentration) and MBC (minimum bactericidal concentration) a National Committee on Clinical Laboratory Standards (NCCLS) micro-dilution procedure was followed. According to the procedure each formulation must be exposed to 6 log concentration of organism or the highest achievable concentration. In the current protocol 100 μL of MHB was mixed with 90 μL of formulation and 10 μL of log 8 organism or the highest achievable concentration. The concentration of the formulation was adjusted to obtain the required concentration in the final solution. The mixture was incubated at 37 degree C. for 16-24 hrs. After 16-24 hours the absorbance value was read at 600 nm. The obtained data was corrected by subtracting the appropriate blanks. Finally, the wells having an absorbance >0.1 were marked + and <0.1 were marked −. The +symbol indicated growth while −symbol indicates no growth.
(§2) Staphylococcus aureus (Organism #25923), Pseudomonas aeruginosa (Organism #27853), and Candida Albicans (Organism #10231) was obtained from ATCC. […] These solutions were then serially diluted as necessary to obtain the required concentrations.

[2] = test system: Pseudomonas aeruginosa (Organism #27853); assay: MIC/MBC micro-dilution at pH 7, P. aeruginosa; type: cell-based; conditions: pH of 7
Description: as §1, §2

[3] = test system: Candida Albicans (Organism #10231); assay: MIC/MBC micro-dilution at pH 7, C. albicans; type: cell-based; conditions: pH of 7
Description: as §1, §2

[4] = rabbit, in vivo; cited from earlier work
[5] = test system: blood coagulation (clotting); assay: Prothrombin Time (PT) Assay; type: biochemical; conditions: concentration of TEDTA of 4 wt %; ISI 1.89
Description: Experiments were conducted to assess the anticoagulant capacities of PHMB, EDTA and combinations of PHMB and EDTA via a Prothrombin Time (PT) Assay. A PT assay (TM-4339-063) was conducted using a Coagulation Analyzer to obtain PT instead of manually recording the PT. Tetrasodium […]) was used (Alfa Aesar, Catalog #A17385, Lot #J9570A). […] […] […] INR is calculated as: INR=([…] sample/PTnormal control)^ISI ISI (International Sensitivity Index) indicates the sensitivity of individual thromboplastin. […] All the PTs greater than 3×the […] 1 (normal control) were replaced with 32 seconds.

[6] = test system: P. aeruginosa; assay: Checkerboard Titration, P. aeruginosa; type: cell-based, Pseudomonas aeruginosa; conditions: PHMB with EDTA(Na4)
Description: (§3) The method used was a NCCLS micro-dilution procedure
(§4) Fraction Inhibitory Concentration (FIC) is defined as the MIC of the compound in combination divided by the MIC of the compound alone. If the FIC index is <0.5, the combination is interpreted to be synergistic; <1 but >0.5—as partially synergistic; =1 as additive; >1 but <4 as indifferent; and ≧4 as antagonistic. In order to calculate the FIC index the following calculations are performed for compounds A and B: • FIC-A=(MIC of A in combination)/(MIC of A alone) • FIC-B=(MIC of B in combination)/(MIC of B alone) • FIC-combination=FIC-A+FIC-B

[7] = test system: C. albicans; assay: Checkerboard Titration, C. albicans; type: cell-based, Candida albicans; conditions: PHMB with EDTA(Na4)
Description: as §3, §4

[8] = test system: S. aureus; assay: Checkerboard Titration, S. aureus; type: cell-based, Staphylococcus aureus; conditions: PHMB with EDTA(Na4)
Description: The following concentrations were tested: Fraction Inhibitory Concentration (FIC) is defined as the MIC of the compound in combination divided by the MIC of the compound alone. […] In order to calculate the FIC index the following calculations are performed for compounds A and B: • FIC-A=(MIC of A in combination)/(MIC of A alone) • FIC-B=(MIC of B in combination)/(MIC of […]

[9] = humans; doses of up to 3000 mg infused over 3 hours, daily; cited from earlier work

Compound `O=C(O)CN(CCN(CC(=O)O)CC(=O)O)CC(=O)O` [EDTA, EDTA, tetrasodium salt hydrate] has an MBC [1] of less than 0.13 wt %, an MIC [1] of less than 0.03 wt % and an MBC [2] of less than 4.00 wt %. The MIC [2] was less than 0.25 wt % and the MIC [3] was greater than 4.0 wt %.

For Poly(hexamethylenebiguanide) [PHMB], the NOAEL [4] is given as “NOAEL = 20 mg/kg/day”.

For `O=C([O-])CN(CCN(CC(=O)[O-])CC(=O)[O-])CC(=O)[O-].[Na+].[Na+].[Na+].[Na+]` [EDTA(Na4), EDTA, tetrasodium salt hydrate], the “International Normalized Ratio (INR)” value [5] was “greater than 7.25”, the “FIC of the single component (MIC in combination / MIC alone)” value (“FIC … (MIC in combination / MIC alone)” for short) [6] was 0.25 and the “FIC … (MIC in combination / MIC alone)” value [7] was 0.3. For the same compound, the “FIC … (MIC in combination / MIC alone)” value [8] was 0.4.

In the case of `O=C([O-])CN(CCN(CC(=O)[O-])CC(=O)O)CC(=O)O.[Na+].[Na+]` [EDTA disodium], the Tolerability [9] is given as “well tolerated”.
